# Source: patent US7601868B2, “Amine derivative” (Takeda Pharmaceutical Company Limited, priority 2003, dated 2009)
row,Compound,melting point [°C]
1,"CC(CNC(=O)c1ccc(Br)cc1F)c1ccc(CN2CCCC2)cc1 (centres unmarked) [Example 5, 4-bromo-2-fluoro-N-{2-[4-(1-pyrrolidinylmethyl)phenyl]propyl}benzamide]",80 to 82
2,"CC(c1ccc(CCNC(=O)c2ccc(Br)cc2)cc1)N1CCCC1 (centres unmarked) [Example 10, 4-bromo-N-(2-{4-[1-(1-pyrrolidinyl)ethyl]phenyl}ethyl)benzamide]",124 to 126
3,"CC(CNC(=O)c1ccc(-c2ccc(Cl)cc2)cc1)c1ccc(CN2CCCC2)cc1 (centres unmarked) [Example 8, 4′-chloro-N-{2-[4-(1-pyrrolidinylmethyl)phenyl]propyl}[1,1′-biphenyl]-4-carboxamide]",156 to 157
4,"CC(c1ccc(CCNC(=O)c2ccc(-c3ccc(OC(F)(F)F)cc3)cc2)cc1)N1CCCC1 (centres unmarked) [Example 16, N-(2-{4-[1-(1-pyrrolidinyl)ethyl]phenyl}ethyl)-4′-(trifluoromethoxy)[1,1′-biphenyl]-4-carboxamide]",135 to 137
5,"CC(c1ccc(CCNC(=O)c2ccc(-c3ccc(C(F)(F)F)cc3)cc2)cc1)N1CCCC1 (centres unmarked) [Example 15, N-(2-{4-[1-(1-pyrrolidinyl)ethyl]phenyl}ethyl)-4′-(trifluoromethyl)[1,1′-biphenyl]-4-carboxamide]",149 to 151
6,"CC(C)C(c1ccc(CCNC(=O)c2ccc(-c3ccc(Cl)cc3)cc2)cc1)N1CCCC1 (centres unmarked) [Example 36, 4′-chloro-N-(2-{4-[2-methyl-1-(1-pyrrolidinyl)propyl]phenyl}ethyl)[1,1′-biphenyl]-4-carboxamide]",143 to 145
7,"CC(c1ccc(CCNC(=O)c2ccc(-c3ccc(Cl)cc3)cc2)cc1)N1CCCC1 (centres unmarked) [Example 11, 4′-chloro-N-(2-{4-[1-(1-pyrrolidinyl)ethyl]phenyl}ethyl)[1,1′-biphenyl]-4-carboxamide]",152 to 153
8,"CC(c1ccc(CCNC(=O)c2ccc(-c3ccccc3)cc2)cc1)N1CCCC1 (centres unmarked) [Example 31, N-(2-{4-[1-(1-pyrrolidinyl)ethyl]phenyl}ethyl)[1,1′-biphenyl]-4-carboxamide]",136 to 138
9,"CCC(c1ccc(CCNC(=O)c2ccc(-c3ccc(Cl)cc3)cc2)cc1)N1CCCC1 (centres unmarked) [Example 33, 4′-chloro-N-(2-{4-[1-(1-pyrrolidinyl)propyl]phenyl}ethyl)[1,1′-biphenyl]-4-carboxamide]",151 to 153
10,"CC(c1ccc(CCNC(=O)c2ccc(-c3ccc(Cl)cc3)cc2)cc1)N1CCSCC1 (centres unmarked) [Example 37, 4′-chloro-N-(2-{4-[1-(4-thiomorpholinyl)ethyl]phenyl}ethyl)[1,1′-biphenyl]-4-carboxamide]",168 to 169
11,"CCCCCc1ccc(C(=O)NCCc2ccc(CN3CCCC3)cc2)cc1 [Example 3, 4-pentyl-N-{2-[4-(1-pyrrolidinylmethyl)phenyl]ethyl}benzamide]",91 to 93
12,"COc1ccc(-c2ccc(C(=O)NCCc3ccc(C(C)N4CCCC4)cc3)cc2)cc1 (centres unmarked) [Example 12, 4′-methoxy-N-(2-{4-[1-(1-pyrrolidinyl)ethyl]phenyl}ethyl)[1,1′-biphenyl]-4-carboxamide]",163 to 165
13,"CC(c1ccc(CCNC(=O)c2ccc(-c3ccc(F)cc3)cc2)cc1)N1CCCC1 (centres unmarked) [Example 13, 4′-fluoro-N-(2-{4-[1-(1-pyrrolidinyl)ethyl]phenyl}ethyl)[1,1′-biphenyl]-4-carboxamide]",141 to 143
14,"O=C(NCCc1ccc(CN2CCCC2)cc1)N1CCC(c2ccc(Cl)cc2)CC1 [Example 1, 4-(4-chlorophenyl)-N-{2-[4-(1-pyrrolidinylmethyl)phenyl]ethyl}-1-piperidinecarboxamide]",116 to 117
15,"CCCC(=O)Cc1ccc(C(=O)NCCc2ccc(CN3CCCC3)cc2)cc1 [Example 4, 4-(2-oxopentyl)-N-{2-[4-(1-pyrrolidinylmethyl)phenyl]ethyl}benzamide]",115 to 117
16,"CC(CNC(=O)c1ccc(-c2ccc(Cl)cc2)cc1F)c1ccc(CN2CCCC2)cc1 (centres unmarked) [Example 6, 4′-chloro-3-fluoro-N-{2-[4-(1-pyrrolidinylmethyl)phenyl]propyl}[1,1′-biphenyl]-4-carboxamide]",119 to 121
17,"CCC(c1ccc(CCNC(=O)c2ccc(Br)cc2)cc1)N1CCCC1 (centres unmarked) [Example 32, 4-bromo-N-(2-{4-[1-(1-pyrrolidinyl)propyl]phenyl}ethyl)benzamide]",90 to 92
18,"CCCCCc1ccc(C(=O)NCC(C)c2ccc(CN3CCCC3)cc2)cc1 (centres unmarked) [Example 9, 4-pentyl-N-{2-[4-(1-pyrrolidinylmethyl)phenyl]propyl}benzamide]",91 to 92

# Further lines, results first:
row,melting point [°C],Compound
1,207 to 209,"O=C(/C=C/c1ccc(CN2CCCC2)cc1)Nc1ccc(-c2ccc(Cl)cc2)cc1 [compound 44, (E)-N-(4′-chloro-1,1′-biphenyl-4-yl)-3-[4-(1-pyrrolidinylmethyl)phenyl]-2-propenamide]"
2,107 to 109,"O=C(Cc1ccc(CN2CCCC2)cc1)NCc1ccc(Br)cc1 [Reference Example 38, N-(4-bromobenzyl)-2-[4-(1-pyrrolidinylmethyl)phenyl]acetamide]"
3,169 to 171,"CN1CCCC1c1ccc(CCNC(=O)c2ccc(-c3ccc(Cl)cc3)cc2)cc1 (centres unmarked) [Example 137, 4′-chloro-N-{2-[4-(1-methyl-2-pyrrolidinyl)phenyl]ethyl}[1,1′-biphenyl]-4-carboxamide]"
4,179 to 181,"O=C(CCc1ccc(CN2CCCC2)cc1)Nc1ccc(-c2ccc(Cl)cc2)cc1 [compound 42, N-(4′-chloro-1,1′-biphenyl-4-yl)-3-[4-(1-pyrrolidinylmethyl)phenyl]propanamide]"
5,137 to 138,"O=C(CCc1ccc(CN2CCCC2)cc1)Nc1ccc(Br)cc1 [Reference Example 41, N-(4-bromophenyl)-3-[4-(1-pyrrolidinylmethyl)phenyl]propanamide]"
6,187 to 189,"O=C(NCCc1ccc(-c2ccc(Cl)cc2)cc1)c1ccc(CN2CCCC2)cc1 [compound 45, N-[2-(4′-chloro-1,1′-biphenyl-4-yl)ethyl]-4-(1-pyrrolidinylmethyl)benzamide]"
7,151 to 153,"O=C(Cc1ccc(CN2CCCC2)cc1)NCc1ccc(-c2ccc(Cl)cc2)cc1 [compound 39, N-[(4′-chloro-1,1′-biphenyl-4-yl)methyl]-2-[4-(1-pyrrolidinylmethyl)phenyl]acetamide]"
8,143 to 145,"O=C(COc1ccc(CN2CCCC2)cc1)Nc1ccc(Br)cc1 [Reference Example 46, N-(4-bromophenyl)-2-[4-(1-pyrrolidinylmethyl)phenoxy]acetamide]"
9,90 to 92,"O=C(NCCc1ccc(CN2CCCC2)cc1)c1ccc(OCC2CC2)cc1F [Example 140, 4-cyclopropylmethoxy-2-fluoro-N-{2-[4-(1-pyrrolidinylmethyl)phenyl]ethyl}benzamide]"
10,184 to 186,"O=C(/C=C/c1ccc(CN2CCCC2)cc1)Nc1ccc(Br)cc1 [Reference Example 43, (E)-N-(4-bromophenyl)-3-[4-(1-pyrrolidinylmethyl)phenyl]-2-propenamide]"
11,104 to 105,"CCCCCc1ccc(NC(=O)CCc2ccc(CN3CCCC3)cc2)cc1 [compound 40, N-(4-pentylphenyl)-3-[4-(1-pyrrolidinylmethyl)phenyl]propanamide]"
